Data from patent US20230077362A1 (CORTEVA AGRISCIENCE LLC, priority 2019, published 2023).
Read-outs that look alike come from different tables or passages of the source.

Experiments:
Format in all cases: in vivo
[1] = test system: Beet Armyworm (Spodoptera exigua) ("BAW"), second instar larvae; assay: Bioassay on beet armyworm (BAW), 128-well diet tray assay; conditions: Spodoptera exigua
In short: (§1)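 Read-out: percent larval mortality per well, averaged over 8 wells. Incubation 25° C., 14:10 L:D photoperiod, 5–7 days, trays sealed with clear adhesive cover.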

[2] = test system: Cabbage Looper (Trichoplusia ni) ("CL"), second instar larvae; assay: Bioassay on cabbage looper (CL), 128-well diet tray assay; conditions: Trichoplusia ni
In short: as §1

[3] = test system: Green Peach Aphid ("GPA") (Myzus persicae), wingless adult and nymph stages; assay: Bioassay on green peach aphid (GPA), foliar spray on infested cabbage seedlings; conditions: for pest or weed control at 200 µg/mL: Myzus persicae, foliar, 72 h
Protocol: Certain molecules disclosed in this document were tested against GPA using procedures described in the following example. In the reporting of the results, the “GPA Rating Table” was used (See Table Section).
Cabbage seedlings grown in 3-inch pots, with 2-3 small (3-5 cm) true leaves, were used as test substrate. The seedlings were infested with 20-50 GPA (wingless adult and nymph stages) one day prior to chemical application. Four pots with individual seedlings were used for each treatment. Test compounds (2 mg) were dissolved in 2 mL of acetone/methanol (1:1) solvent, forming stock solutions of 1000 ppm test compound. […] A hand-held aspirator-type sprayer was used for spraying a solution to both sides of […] leaves until runoff. Reference plants (solvent check) were sprayed with the diluent only containing 20% by volume of acetone/methanol (1:1) solvent. Treated plants were held in a holding room for three days at approximately 25° C. and ambient relative humidity (RH) prior to grading. Evaluation was conducted by counting the number of live aphids per plant under a microscope.
Corrected % Control=100*(X−Y)/X • where • X=No. of live aphids on solvent check plants and • Y=No. of live aphids on treated plants
The results are indicated in the table entitled “Table ABC: Biological Results” (See Table Section).

[4] = read-out: BAW (Biological Results, rating)
[5] = read-out: CL (Biological Results, rating)
[6] = read-out: GPA (Biological Results, rating)

Row | Structure (SMILES) | pest or weed control at 50 µg/cm2 [1, 4] [%] | pest or weed control at 50 µg/cm2 [2, 5] [%] | pest or weed control at 200 µg/mL [3, 6] [%] | pest or weed control at 50 µg/cm2 ([1]; read-out: BAW rating) [%] | pest or weed control at 50 µg/cm2 ([2]; read-out: CL rating) [%] | pest or weed control at 200 µg/mL ([3]; read-out: GPA rating) [%] | GPA rating (% control or mortality class) ([3]; Table ABC, species GPA, foliar spray on infested cabbage seedlings)
1 | COc1ccc(C(C)C)c(N2C(=O)CS/C2=N\C(=O)Nc2ccc(-c3ncn(-c4cccc(OC(F)(F)F)c4)n3)cc2)c1 [Compound J328, (Z)-1-(3-(2-Isopropyl-5-methoxyphenyl)-4-oxothiazolidin-2-ylidene)-3-(4-(1-(3-(trifluoromethoxy)phenyl)-1H-1,2,4-triazol-3-yl)phenyl)urea] | 50 to 100 | 50 to 100 | 0 to 80 | – | – | – | –
2 | COc1ccc(C(C)C)c(N2C(=O)CS/C2=N\C(=O)Nc2ccc(-c3ncn(-c4cccc(C(F)(F)F)c4)n3)cc2)c1 [Compound J324, (Z)-1-(3-(2-Isopropyl-5-methoxyphenyl)-4-oxothiazolidin-2-ylidene)-3-(4-(1-(3-(trifluoromethyl)phenyl)-1H-1,2,4-triazol-3-yl)phenyl)urea] | 50 to 100 | 50 to 100 | 0 to 80 | – | – | – | –
3 | CC(C)c1ccc(N(C)C)cc1N1C(=O)CS/C1=N\C(=O)Nc1ccc(-c2cn(-c3ccc(S(=O)(=O)C(F)(F)F)cc3)cn2)cc1F [Compound J650, (Z)-1-(3-(5-(Dimethylamino)-2-isopropylphenyl)-4-oxothiazolidin-2-ylidene)-3-(2-fluoro-4-(1-(4-((trifluoromethyl)sulfonyl)phenyl)-1H-imidazol-4-yl)phenyl)urea] | – | – | – | 50 to 100 | 50 to 100 | 0 to 80 | –
4 | CN(C)c1ccc(OCCC(F)(F)F)c(N2C(=O)CS/C2=N\C(=O)Nc2ccc(-c3ncn(-c4ccc(OC(F)(F)F)cc4)n3)cc2F)c1 [Compound J105, (Z)-1-(3-(5-(Dimethylamino)-2-(3,3,3-trifluoropropoxy)phenyl)-4-oxothiazolidin-2-ylidene)-3-(2-fluoro-4-(1-(4-(trifluoromethoxy)phenyl)-1H-1,2,4-triazol-3-yl)phenyl)urea] | 50 to 100 | 50 to 100 | 0 to 80 | – | – | – | –
5 | Cc1ccc(OCCC(F)(F)F)c(N2C(=O)CS/C2=N\C(=O)Nc2ccc(-c3ncn(-c4cccc(C(F)(F)F)c4)n3)cc2F)c1 [Compound J142, (Z)-1-(2-Fluoro-4-(1-(3-(trifluoromethyl)phenyl)-1H-1,2,4-triazol-3-yl)phenyl)-3-(3-(5-methyl-2-(3,3,3-trifluoropropoxy)phenyl)-4-oxothiazolidin-2-ylidene)urea] | 50 to 100 | 50 to 100 | 0 to 80 | – | – | – | –
6 | COC(c1ccc(C)cc1N1C(=O)CS/C1=N\C(=O)Nc1ccc(-c2ncn(-c3ccc(OC(F)(F)F)cc3)n2)cc1F)C(F)(F)F (stereo not shown) [Compound J181, (Z)-1-(2-Fluoro-4-(1-(4-(trifluoromethoxy)phenyl)-1H-1,2,4-triazol-3-yl)phenyl)-3-(3-(5-methyl-2-(2,2,2-trifluoro-1-methoxyethyl)phenyl)-4-oxothiazolidin-2-ylidene)urea] | 50 to 100 | 50 to 100 | 0 to 80 | – | – | – | –
7 | CCc1cc(-c2ncn(-c3ccc(OC(F)(F)F)cc3)n2)ccc1NC(=O)/N=C1\SCC(=O)N1c1cc(C)ccc1OCC(F)(F)F [Compound J75, (Z)-1-(2-Ethyl-4-(1-(4-(trifluoromethoxy)phenyl)-1H-1,2,4-triazol-3-yl)phenyl)-3-(3-(5-methyl-2-(2,2,2-trifluoroethoxy)phenyl)-4-oxothiazolidin-2-ylidene)urea] | 50 to 100 | 50 to 100 | 0 to 80 | – | – | – | –
8 | COc1ccc(-n2cnc(-c3ccc(NC(=O)/N=C4\SCC(=O)N4c4cc(N(C)C)ccc4C(C)C)c(F)c3)n2)cc1 [Compound J146, (Z)-1-(3-(5-(Dimethylamino)-2-isopropylphenyl)-4-oxothiazolidin-2-ylidene)-3-(2-fluoro-4-(1-(4-methoxyphenyl)-1H-1,2,4-triazol-3-yl)phenyl)urea] | 50 to 100 | 50 to 100 | 0 to 80 | – | – | – | –
9 | Cc1ccc(C(C)C)c(N2C(=O)CS/C2=N\C(=O)Nc2ccc(-c3ncn(-c4ccc(OC(F)(F)F)cc4)n3)cc2F)c1 [Compound J19, (Z)-1-(2-Fluoro-4-(1-(4-(trifluoromethoxy)phenyl)-1H-1,2,4-triazol-3-yl)phenyl)-3-(3-(2-isopropyl-5-methylphenyl)-4-oxothiazolidin-2-ylidene)urea] | 50 to 100 | 50 to 100 | 0 to 80 | – | – | – | –
10 | Cc1ccc(COCC(F)(F)F)c(N2C(=O)CS/C2=N\C(=O)Nc2ccc(-c3ncn(-c4ccc(S(=O)(=O)C(F)(F)F)cc4)n3)cc2C)c1 [Compound J365, (Z)-1-(3-(5-Methyl-2-((2,2,2-trifluoroethoxy)methyl)phenyl)-4-oxothiazolidin-2-ylidene)-3-(2-methyl-4-(1-(4-((trifluoromethyl)sulfonyl)phenyl)-1H-1,2,4-triazol-3-yl)phenyl)urea] | – | – | – | 50 to 100 | 50 to 100 | 0 to 80 | –
11 | Cc1ccc(OCCC(F)(F)F)c(N2C(=O)CS/C2=N\C(=O)Nc2ccc(-c3ncn(-c4cccc(C(F)(F)F)c4)n3)cc2)c1 [Compound J326, (Z)-1-(3-(5-Methyl-2-(3,3,3-trifluoropropoxy)phenyl)-4-oxothiazolidin-2-ylidene)-3-(4-(1-(3-(trifluoromethyl)phenyl)-1H-1,2,4-triazol-3-yl)phenyl)urea] | 50 to 100 | 50 to 100 | 0 to 80 | – | – | – | –
12 | CC(C)c1ccc(N(C)C)cc1N1C(=O)CS/C1=N\C(=O)Nc1ccc(-c2ncn(-c3ccc(S(=O)(=O)C(F)(F)F)cc3)n2)cc1F [Compound J364, (Z)-1-(3-(5-(Dimethylamino)-2-isopropylphenyl)-4-oxothiazolidin-2-ylidene)-3-(2-fluoro-4-(1-(4-((trifluoromethyl)sulfonyl)phenyl)-1H-1,2,4-triazol-3-yl)phenyl)urea] | – | – | – | 50 to 100 | 50 to 100 | 0 to 80 | –
13 | Cc1ccc(C(C)C)c(N2C(=O)C(Cl)S/C2=N\C(=O)Nc2ccc(-c3ncn(-c4ccc(OC(F)(F)F)cc4)n3)cc2)c1 (stereo not shown) [Compound J314, (Z)-1-(5-Chloro-3-(2-isopropyl-5-methylphenyl)-4-oxothiazolidin-2-ylidene)-3-(4-(1-(4-(trifluoromethoxy)phenyl)-1H-1,2,4-triazol-3-yl)phenyl)urea] | 50 to 100 | 50 to 100 | 0 to 80 | – | – | – | –
14 | CCN(C(C)=O)c1ccc(C(C)C)c(N2C(=O)CS/C2=N\C(=O)Nc2ccc(-c3ncn(-c4ccc(OC(F)(F)F)cc4)n3)cc2F)c1 [Compound J189, (Z)-N-Ethyl-N-(3-(2-(((2-fluoro-4-(1-(4-(trifluoromethoxy)phenyl)-1H-1,2,4-triazol-3-yl)phenyl)carbamoyl)imino)-4-oxothiazolidin-3-yl)-4-isopropylphenyl)acetamide] | 50 to 100 | 50 to 100 | 0 to 80 | – | – | – | –
15 | CC(C)c1ccc(C#N)cc1N1C(=O)CS/C1=N\C(=O)Nc1ccc(-c2ncn(-c3ccc(OC(F)(F)F)cc3)n2)cc1F [Compound J76, (Z)-1-(3-(5-Cyano-2-isopropylphenyl)-4-oxothiazolidin-2-ylidene)-3-(2-fluoro-4-(1-(4-(trifluoromethoxy)phenyl)-1H-1,2,4-triazol-3-yl)phenyl)urea] | – | – | 0 to 80 | – | – | – | –
16 | CCOc1ccc(C(C)C)c(N2C(=O)CS/C2=N\C(=O)Nc2ccc(-c3ncn(-c4ccc(OC(F)(F)F)cc4)n3)cc2F)c1 [Compound J191, (Z)-1-(3-(5-Ethoxy-2-isopropylphenyl)-4-oxothiazolidin-2-ylidene)-3-(2-fluoro-4-(1-(4-(trifluoromethoxy)phenyl)-1H-1,2,4-triazol-3-yl)phenyl)urea] | – | – | 0 to 80 | – | – | – | –
17 | CCCc1ccc(C)cc1N1C(=O)CS/C1=N\C(=O)Nc1ccc(-c2ncn(-c3ccc(OC(F)(F)F)cc3)n2)cc1F [Compound J41, (Z)-1-(2-Fluoro-4-(1-(4-(trifluoromethoxy)phenyl)-1H-1,2,4-triazol-3-yl)phenyl)-3-(3-(5-methyl-2-propylphenyl)-4-oxothiazolidin-2-ylidene)urea] | – | – | 0 to 80 | – | – | – | –
18 | Cc1ccc(-c2ccccc2)c(N2C(=O)CS/C2=N\C(=O)Nc2ccc(-c3ncn(-c4ccc(OC(F)(F)F)cc4)n3)cc2F)c1 [Compound J785, (Z)-1-(2-Fluoro-4-(1-(4-(trifluoromethoxy)phenyl)-1H-1,2,4-triazol-3-yl)phenyl)-3-(3-(4-methyl-[1,1′-biphenyl]-2-yl)-4-oxothiazolidin-2-ylidene)urea] | – | – | – | – | – | – | D (No activity noticed in this bioassay)
